Reference: patent US12258336B2, “Preparation of seimicarbazide-sensitive amine oxidase inhibitor and use thereof” (SHANGHAI ENNOVABIO PHARMACEUTICALS CO., LTD., priority 2018, dated 2025)

Columns and labels:
[1] = biological target: T1, mouse SSAO protein (Mus musculus, UniProt O70423); experiment: In vitro inhibitory activity on SSAO/VAP-1 (MAO-Glo assay), mouse; format: biochemical
T1 construct: Eli Lilly (provided, not a catalogue product)
T1 sequence (O70423 1-765): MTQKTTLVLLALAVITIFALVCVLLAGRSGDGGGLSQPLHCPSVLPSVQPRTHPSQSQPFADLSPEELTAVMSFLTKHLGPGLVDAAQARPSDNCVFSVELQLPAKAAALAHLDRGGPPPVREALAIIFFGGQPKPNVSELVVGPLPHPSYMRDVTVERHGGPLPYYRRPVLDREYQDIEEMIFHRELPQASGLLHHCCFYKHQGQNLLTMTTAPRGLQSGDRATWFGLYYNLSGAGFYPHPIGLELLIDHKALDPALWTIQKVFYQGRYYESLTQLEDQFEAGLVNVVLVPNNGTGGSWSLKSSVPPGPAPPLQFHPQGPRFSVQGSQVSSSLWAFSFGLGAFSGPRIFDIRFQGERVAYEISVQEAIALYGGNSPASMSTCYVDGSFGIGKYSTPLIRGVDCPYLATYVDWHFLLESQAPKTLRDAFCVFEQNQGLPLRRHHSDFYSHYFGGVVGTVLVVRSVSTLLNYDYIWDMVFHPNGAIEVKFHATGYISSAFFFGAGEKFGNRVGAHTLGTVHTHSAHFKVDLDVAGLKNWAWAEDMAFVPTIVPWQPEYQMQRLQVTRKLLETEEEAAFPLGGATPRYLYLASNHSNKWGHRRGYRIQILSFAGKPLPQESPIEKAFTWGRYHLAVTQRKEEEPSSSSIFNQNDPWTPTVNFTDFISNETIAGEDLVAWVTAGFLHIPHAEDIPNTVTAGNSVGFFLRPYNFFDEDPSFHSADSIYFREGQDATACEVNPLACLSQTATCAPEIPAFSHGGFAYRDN
Experimental: This assay was used to evaluate the in vitro inhibitory activity of the compounds on SSAO/VAP-1 of different species. Recombinant human SSAO protein, mouse SSAO protein or rat SSAO protein (provided by Eli Lilly) were used. The enzyme activity detection kit, MAO-Glo Assay kit (V1402) was purchased from Promega. Enzyme reaction buffer (50 mM HEPES, 120 mM NaCl, 5 mM KCl, 2 mM CaCl2, 1.4 mM MgCl2, 0.001% Tween-20, pH7.4) was prepared. The test compound was dissolved in DMSO and diluted by 3-fold concentration in gradient. The final concentration of test compound in a 10 μL reaction system was 1 μM to 0.05 nM when SSAO was detected. The content of DMSO in the detection reaction was 1%. After the solution of test compound in DMSO was diluted in the enzyme reaction buffer at a volume ratio of 1:25, 2.5 μL of which was added to each well of detection plate, two replicates for each concentration. 5 μL of SSAO protein diluted in the enzyme reaction buffer was added to each well, the final concentration of which was 10 nM to 80 nM in 10 μL reaction system. The mixture was incubated at room temperature for 10 minutes. 2.5 μL of the reaction substrate diluted in the enzyme reaction buffer was added to each well, the final concentration of which was 10 μM in 10 μL reaction system. After the mixture was reacted at room temperature for 120 minutes, 10 μL of detection reagent was added to each well. The reaction solution was incubated for 20 minutes at room temperature, and the plate was read with Synergy Neo 2 for detection. The value was converted into inhibition rate by the following formula: Inhibition rate=(Signalpositive−Signaltest)/(Signalpositive−Signalnegative)×100%
Signalpositive was positive control without test compound. Signalnegative was negative control without test compound and SSAO enzyme, and Signaltest was detection value of each compound at different concentrations. IC50 value was calculated by using 4 parameter curve fitting.

[2] = test system: LPS-induced inflammatory disease model in rats; experiment: LPS-induced ocular inflammation model: protein concentration and cell number in aqueous humor; format: in vivo; conditions: rat, LPS footpad injection, 6 mg/kg oral 1 h before induction, 24 hours after induction, mean±SEM
Experimental: (§1) 22 rats (7-8 weeks, 220-250 g) were divided into 3 groups, which were control group (6), model group (8) and compound treated group (8). For the model group and compound treated group, ocular inflammation was induced by a single injection of 8 μg/100 μL lipopolysaccharide (Sigma-Aldrich-L2880) into the footpad. The rats were grouped according to their body weight 1 h before induction. Example 4 compound (6 mg/kg, 10 mL/kg) or vehicle (10 mL/kg) were orally administered respectively. 24 hours after induction, the anterior aqueous humor was collected and the eyeballs were removed to dissect the retina. Ocular inflammation was quantitatively evaluated by measuring the protein concentration and cell number in the aqueous humor. qPCR method was used to verify changes in the expression of ocular retinal inflammation-related genes.
10 μL of aqueous humor was diluted in 40 μL of PBS and mixed, then 25 μL of mixture was mixed with 75 μL of PBS, and centrifuged at 300 g for 5 min at 4° C. 55 μL of supernatant was aspirated carefully and the protein concentration was determined according to the method described in the BCA Protein Assay Kit (Pierce-23227); after the remaining sample was resuspended, 40 μL of cell suspension was added into 100 μL of 1% FBS/PBS to analyze and count live cells using NovoCyte 3130 flow cytometry after excluding cell debris.

[3] = test system: ALOX5AP, SOCS3 and TLR7 gene expression in retina; experiment: LPS-induced ocular inflammation model: qPCR of inflammation-related genes in retina; format: in vivo; conditions: rat, 6 mg/kg oral, compared with model group
Experimental: as §1
• 1) Primers were synthesized, with the information shown as follows:
• 2) Retinal RNA was extracted according to operating instructions of RNA extraction kit (RNeasy Mini Kit, Qiagen-74104), and then the RNA was reverse-transcribed into cDNA (High Capacity cDNA Reverse Transcription Kits, ABI-4374966). The obtained cDNA was diluted 10 times to serve as qPCR reaction template. According to instructions of Power SYBR Green kit (ABI-A25918), qPCR reaction was performed on CFX384 Real-Time qPCR equipment. Quantitative analysis of expression changes for each gene expression was performed using CFX Maestro software by ΔΔCt method, with UBC as internal housekeeping gene.

Row | IC50 [1] [µM] | Compound | cell number in aqueous humor ([2]; model group 48.28±21.46) | protein concentration in aqueous humor ([2]; model group 9730.04±1232.30) [µg/mL] | expression level of ALOX5AP gene in retina [3] | expression level of SOCS3 gene in retina [3] | expression level of TLR7 gene in retina [3]
1 | < 0.1 | NC/C(=C\F)COc1cnc(N2CCN(C3COC3)CC2)nc1 [Example 4, (E)-3-fluoro-2-(((2-(4-(oxbutan-3-yl)piperazin-1-yl)pyrimidin-5-yl)oxo)methyl)prop-2-en-1-amine] | 5.07±0.80 *10^4 cell/mL | 7275.44 ± 622.66 | significantly reduce | significantly reduce | significantly reduce
2 | < 0.1 | COC1CC2CC1CN2c1ncc(OC/C(=C/F)CN)cn1 (centres unmarked) [Example 2] |  |  |  |  | 

Row | Compound | IC50 [1] [µM] | cell number in aqueous humor ([2]; model group 48.28±21.46) | protein concentration in aqueous humor ([2]; model group 9730.04±1232.30) [µg/mL] | expression level of ALOX5AP gene in retina [3] | expression level of SOCS3 gene in retina [3] | expression level of TLR7 gene in retina [3]
3 | COC1CC2CCC(C1)N2c1ncc(OC/C(=C/F)CN)cn1 (centres unmarked) [Example 12] | < 0.1 |  |  |  |  | 
